# Reference: article PMC4452637, “Identification of positron emission tomography (PET) tracer candidates by prediction of the target-bound fraction in the brain” (EJNMMI Research, 2014)
# Where two headings read alike, the source gives them in different places.
# How the values were obtained:
# [1] = High-throughput brain slice method (Vu,brain); details: unbound volume of distribution in brain, measured in rat brain slices, LC-MS/MS (no fu,brain tabulated in Table S1)
# [2] = design: method as in ref 10 (a number printed in a supplementary file, which may have a reference list of its own: not looked up in the article's list); details: unbound fraction in homogenized brain tissue, reported; cited from earlier work
# [3] = Unbound fraction in brain homogenate (fu,brain); Vu,brain calculated from it with pH-partition model; details: calculated from reported fu,brain and tracer pKa with pH-partition model (tracers with fu,brain tabulated, footnote h of Table S1)
# Experimental: The unbound volume of distribution in the brain (Vu,brain) describing the extent of non-specific partitioning was determined for 31 tracers using a previously described high-throughput brain slice method [11].
# [4] = test system: D2; details: PET, cited from earlier work
# [5] = caudate/striatum, ref 23 (Additional file 1)
SMILES,"V u,brain [1] [mL/g brain]","fu,brain [2]","V u,brain [3] [mL/g brain]",other results
[11CH3]N1CCc2cc(Cl)c(O)cc2[C@@H](c2cccc3ccoc23)C1 [[^11C]NNC112],70,–,–,–
CCN1CCC[C@H]1CNC(=O)c1cc(Br)cc(OC)c1O[11CH3] [[^11C]FLB457],–,0.11,26,–
[11CH3]Nc1ccc(-c2nc3ccc(O)cc3s2)cc1 [[^11C]PIB],–,0.004,–,–
CCN1CCC[C@H]1CNC(=O)c1c(O)c(Cl)cc(Cl)c1O[11CH3] (racemic) [[^11C]Raclopride],–,–,–,"BP ND [4, 5]: 2.6"
C=CCN1CCC[C@H]1CNC(=O)c1cc(CCC[18F])cc(OC)c1OC [[^18 F]Fallypride],–,0.15,18,"BP ND [4, 5]: 22.2; BP ND ([4]; caudate/striatum, ref 23 (Additional file 1), listed as [^18F]Fallypride): 22.2[23]; BP ND ([4]; thalamus, 32 (Additional file 1)): 2.11; BP ND ([4]; thalamus, 32 (Additional file 1), listed as [^18F]Fallypride): 2.11[23]"
[11CH3]OC(=O)N1CCN(C(=O)Cc2ccc(Cl)c(Cl)c2)[C@H](CN2CCCC2)C1 [[^11C]GR103545],–,0.07,41,–
[11CH3]Nc1ccc(-c2nc3ccc(O)cc3s2)cn1 [[^11C]AZD2184],33,–,–,–
Cc1nccc2c1[nH]c1cc(O[11CH3])ccc12 [[^11C]Harmine],–,0.04,25,–
Cc1ccc(Sc2ccccc2CN(C)[11CH3])c(N)c1 [[^11C]MADAM],90,–,–,–
CN([11CH3])Cc1ccccc1Sc1ccc(C#N)cc1N [[^11C]DASB],–,0.09,31,–
O=C(CCCN1CCC2(CC1)C(=O)NCN2c1ccccc1)c1ccc([18F])cc1 [[^18 F]Spiperone],147,–,–,–
Cc1ccc(N2CCN([11CH3])CC2)c2oc(C(=O)Nc3ccc(N4CCOCC4)cc3)cc(=O)c12 [[^11C]AZ10419369],30,–,–,–
Cc1ccc(C2CC3CCC(C2C(=O)O[11CH3])N3CC=CI)cc1 (centres unmarked) [[^11C]PE2I],39,–,–,–
C[C@@H](N[C@@H]1C[C@H](c2cccc(O[11CH3])c2)N(c2ccc(C(F)(F)F)cc2)C1=O)c1ccccc1 [[^11C]MePPEP],296,–,–,–
[11CH3]N1CCc2cc(Cl)c(O)cc2[C@@H](c2ccccc2)C1 [[^11C]SCH23390],–,0.06,32,–
COc1c(O[11CH3])cccc1[C@H](O)C1CCN(CCc2ccc(F)cc2)CC1 [[^11C]MDL100907],–,–,17,–
[11CH3]N1C(=O)Cc2cc3c(CCC4CCN(Cc5ccccc5)CC4)noc3cc21 [[^11C]CP-126998],–,0.07,41,–
[11CH3]Oc1ccccc1O[C@@H](c1ccccc1)[C@H]1CNCCO1 [[^11C]MeNER],–,0.07,31,–
[11CH3]NC(=O)c1ccc(Oc2ccc3c(c2)CCN(C2CCC2)CC3)nc1 [[^11C]GSK189254A],–,0.24,–,–
CCC(C)N(C)C(=O)c1cc2ccccc2c(-c2ccccc2Cl)n1 (centres unmarked) [[^11C]PK11195],–,0.01,59,–
COc1ccccc1N1CCN(CCN(c2ccccn2)[11C](=O)C2CCCCC2)CC1 [[^11C]WAY100635],14,–,–,–
[11CH3]Sc1ccc([C@H]2CN3CCC[C@H]3c3ccccc32)cc1 [[^11C]McN5652],238,–,–,–
